According to patent US20210007356A1, “IMIDE DERIVATIVE AND FUNGICIDE CONTAINING SAID DERIVATIVE AS ACTIVE INGREDIENT” (HOKKO CHEMICAL INDUSTRY CO., LTD., priority 2018, published 2021):
Read-outs that look alike come from different tables or passages of the source.

Tests used:
[1] = system: rice blast fungus (Pyricularia grisea); format: in vivo; details: flowable 1,000 ppm, 1 mL dripped in paddy water, inoculated after 1 week, 7 days after inoculation
[2] = system: rice sheath blight fungus (Thanatephorus cucumeris); experiment: Test Example 6: control effect against rice sheath blight by box treatment (flowable formulation); details: flowable 5,000 ppm, 50 mL irrigation of nursery box, paddy rice; inoculated after 3 weeks; 7 days after inoculation
Protocol: Control value (%)=[1−(lesion height in sprayed plot/lesion height in unsprayed plot)]×100 (d)
By irrigation, 50 mL of a diluted solution (5,000 ppm) of a flowable prepared according to Formulation Example-3 was applied to a 2.5-leaf-stage paddy rice (variety: Asahi) seedling raised using a nursery box ( 1/10 the area of standard nursery box in size: 12 cm×15 cm×height 4 cm) within a greenhouse. The formulation-treated paddy rice seedling was immediately transplanted at 5 seedlings/pot into a pot ( 1/10000 are in size) filled with paddy soil (flooded). After growing for 3 weeks within a greenhouse, a culture of rice sheath blight fungus (Thanatephorus cucumeris) grown in advance on a rice straw medium was inoculated into the root of the formulation-treated paddy rice, and disease development was promoted in an artificial weather chamber at 26° C. (relative humidity=100%). Seven days after the inoculation, the rice sheath blight lesion height (height from the root) was examined, and the control value (%) was calculated according to formula (d). […] This test was performed with three replications, each consisting of one plot and one pot, per one formulation plot, and its average evaluation value of control effect was determined.

[3] = system: rice sheath blight fungus (Thanatephorus cucumeris); experiment: Test Example 8: control effect against rice sheath blight by box treatment (granule); details: 5 g of granule on nursery box, paddy rice; inoculated after 3 weeks; 7 days after inoculation
[4] = system: rice blast fungus (Pyricularia grisea); format: in vivo; details: 5 g of granule on nursery box, paddy rice; inoculated after 3 weeks; 7 days after inoculation
[5] = system: rice sheath blight fungus (Thanatephorus cucumeris); experiment: Test Example 10: control effect against rice sheath blight by water surface application (flowable formulation); details: flowable 1,000 ppm, 1 mL dripped in paddy water, inoculated after 1 week, 7 days after inoculation
[6] = system: rice blast fungus (Pyricularia grisea); format: in vivo; details: flowable 5,000 ppm, 50 mL irrigation of nursery box, paddy rice; inoculated after 3 weeks; 7 days after inoculation
[7] = system: barley powdery mildew fungus (Erysiphe graminis); experiment: Test Example 2: control effect against barley powdery mildew by foliage application; format: in vivo; details: wettable powder diluted to 100 ppm, 10 mL per pot foliage spray on barley; inoculated day after; 7 days after inoculation
[8] = system: rice blast fungus (Pyricularia grisea); format: in vivo; details: flowable diluted to 100 ppm, 10 mL per pot foliage spray on paddy rice; inoculated day after; 7 days after inoculation

Compound	evaluation value of control effect (from control value, number of lesions) [1]	evaluation value of control effect (from control value, lesion height) [2]	evaluation value of control effect (from control value, lesion height) [3]	evaluation value of control effect (from control value, number of lesions) [4]	evaluation value of control effect (from control value, lesion height) [5]	evaluation value of control effect (from control value, number of lesions) [6]	evaluation value of control effect (from control value, lesion area percentage) [7]	evaluation value of control effect (from control value, number of lesions) [8]
Cc1cc(C(=O)N(C(=O)c2scnc2C(F)F)c2ccccc2C(C)CC(C)C)sn1 (centres unmarked) [7-134]	5	5	5	5	5	5	4	4
Cc1nc(C(F)F)c(C(=O)N(C(=O)c2sc(C)nc2C(F)(F)F)c2ccccc2C(C)CC(C)C)s1 (centres unmarked) [7-226]	5	5	5	5	5	5	4	4
Cc1nnsc1C(=O)N(C(=O)c1cn(C)nc1C(F)F)c1ccsc1C(C)CC(C)C (centres unmarked) [5-23]	5	5	5	5	5	5	5	4
Cc1nc(C(F)F)c(C(=O)N(C(=O)c2scnc2C(F)F)c2ccccc2C(C)CC(C)C)s1 (centres unmarked) [7-262]	5	5	5	5	5	5	4	4
Cc1nc(C(F)F)c(C(=O)N(C(=O)c2scnc2C(F)F)c2cccc3c2C(C)CC3(C)C)s1 (centres unmarked) [26-85]	5	5	5	5	5	5	5	4
Cc1nnsc1C(=O)N(C(=O)c1cn(C)nc1C(F)F)c1ccccc1C(C)CC(C)C (centres unmarked) [1-146, N-{3-(Difluoromethyl)-1-methylpyrazole-4-carbonyl}-N-{2-(1,3-dimethylbutyl)phenyl}-4-methylthiadiazole-5-carboxamide]	5	5	5	5	5	5	4	4
CC(C)CC(C)c1ccccc1N(C(=O)c1cn(C)nc1C(F)F)C(=O)c1snc(Cl)c1Cl (centres unmarked) [1-35]	5	5	5	5	5	5	5	4
CC(C)CC(C)c1ccccc1N(C(=O)c1cn(C)nc1C(F)F)C(=O)c1snnc1C(F)F (centres unmarked) [1-237]	5	5	5	5	5	5	5	4
Cc1nc(C(F)F)c(C(=O)N(C(=O)c2sc(C)nc2C(F)F)c2ccccc2C(C)CC(C)C)s1 (centres unmarked) [7-238, 4-Difluoromethyl-N-{4-(difluoromethyl)-2-methyl-thiazole-5-carbonyl}-N-{2-(1,3-dimethylbutyl)phenyl}-2-methyl-thiazole-5-carboxamide]	5	5	5	5	5	5	5	4
Cn1cc(C(=O)N(C(=O)c2snc(Cl)c2Cl)c2ccccc2C2CC2C2CC2)c(C(F)F)n1 (centres unmarked) [1-29]	5	5	5	5	5	5	4	4
Cn1cc(C(=O)N(C(=O)c2scnc2C(F)F)c2ccccc2-c2cc(F)c(F)c(F)c2)c(C(F)F)n1 [1-370]	5	5	5	5	5	5	4	4
CC(C)CC(C)c1sccc1N(C(=O)c1cn(C)nc1C(F)F)C(=O)c1snc(Cl)c1Cl (centres unmarked) [5-5]	5	5	5	5	5	5	5	4
CC1OC(C)(C)c2cccc(N(C(=O)c3cn(C)nc3C(F)F)C(=O)c3scnc3C(F)F)c21 (centres unmarked) [25-110]	5	5	5	5	5	5	4	4
Cc1nsc(C(=O)N(C(=O)c2scnc2C(F)F)c2ccccc2C(C)CC(C)C)c1Cl (centres unmarked) [7-141]	5	5	5	5	5	5	4	4
CCc1nc(C(F)F)c(C(=O)N(C(=O)c2sc(C)nc2C(F)F)c2ccccc2C(C)CC(C)C)s1 (centres unmarked) [7-216]	5	5	5	5	5	5	4	4
CC1OC(C)(C)c2cccc(N(C(=O)c3cn(C)nc3C(F)F)C(=O)c3snnc3C(F)F)c21 (centres unmarked) [25-68]	5	5	5	5	5	5	4	4
